Reference: patent publication US10988459B2 (priority 2015, dated 2021)

Biological target: human RIP1 kinase domain (2-375) (Homo sapiens (Human), UniProt Q13546)
Experiment: biochemical
Type: biochemical
Conditions: tight-binding apparent inhibition constant; human RIP1 kinase domain (2-375) 50 nM, 50 uM ATP, 2 hours; read-out: Ki
Summary of the method: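 Ki^app comes from Morrison tight-binding fits of fractional activity versus compound concentration. Activity was read as ADP production, via tracer displacement lowering fluorescence polarization (633 nm laser). Conditions: 2 h, 50 nM insect-cell-expressed enzyme, 50 uM ATP, 30 mM MgCl2, 1 mM DTT, 0.5% DMSO, pH 7.5 Hepes.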

human RIP1 kinase domain (2-375), sequence (Q13546 2-375): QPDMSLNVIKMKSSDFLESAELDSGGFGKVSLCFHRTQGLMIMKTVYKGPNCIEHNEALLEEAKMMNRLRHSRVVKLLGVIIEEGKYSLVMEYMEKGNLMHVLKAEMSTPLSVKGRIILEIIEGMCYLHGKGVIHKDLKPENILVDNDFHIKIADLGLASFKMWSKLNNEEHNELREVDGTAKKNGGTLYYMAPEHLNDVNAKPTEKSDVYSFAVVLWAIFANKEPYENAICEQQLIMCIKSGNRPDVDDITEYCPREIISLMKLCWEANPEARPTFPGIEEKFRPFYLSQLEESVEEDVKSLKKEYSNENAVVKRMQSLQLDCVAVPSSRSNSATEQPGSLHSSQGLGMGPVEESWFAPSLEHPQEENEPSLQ

Ki	SMILES
240 nM	CN1C(=O)[C@@H](NC(=O)c2nc3n(n2)CCC32CCOCC2)COc2ccccc21 [Example 634, N-[(3S)-5-methyl-4-oxo-2,3-dihydro-1,5-benzoxazepin-3-yl]spiro[5,6-dihydropyrrolo[1,2-b][1,2,4]triazole-7,4′-tetrahydropyran]-2-carboxamide]
7300 nM	Cc1cc2n(n1)CC[C@H](NC(=O)c1nc3n(n1)CCC31CCOCC1)C(=O)N2C [Example 635, N-[(6S)-2,4-dimethyl-5-oxo-7,8-dihydro-6H-pyrazolo[1,5-a][1,3]diazepin-6-yl]spiro[5,6-dihydropyrrolo[1,2-b][1,2,4]triazole-7,4′-tetrahydropyran]-2-carboxamide]
130 nM	Cc1cc2n(n1)CC[C@H](NC(=O)c1nc3n(n1)CCN3c1ccccc1)C(=O)N2C [Example 636, 4-phenyl-N-[(6S)-2,4-dimethyl-5-oxo-7,8-dihydro-6H-pyrazolo[1,5-a][1,3]diazepin-6-yl]-5,6-dihydroimidazo[1,2-b][1,2,4]triazole-2-carboxamide]
18 nM	O=C(N[C@H]1CCc2cc(F)cc(F)c2NC1=O)c1ncc2c(n1)C1(CCCC1)OC2 [Example 637, N-[(3S)-7,9-difluoro-2-oxo-1,3,4,5-tetrahydro-1-benzazepin-3-yl]spiro[5H-furo[3,4-d]pyrimidine-7,1′-cyclopentane]-2-carboxamide]
38 nM	O=C(N[C@H]1CCc2cc(F)cc(F)c2NC1=O)c1nc2n(n1)CCO[C@H]2c1ccccc1 [Example 638, (8S)-8-phenyl-N-[(3S)-7,9-difluoro-2-oxo-1,3,4,5-tetrahydro-1-benzazepin-3-yl]-6,8-dihydro-5H-[1,2,4]triazolo[5,1-c][1,4]oxazine-2-carboxamide]
420 nM	O=C(N[C@H]1CCc2cc(F)cc(F)c2NC1=O)c1nc2n(n1)CCO[C@@H]2c1ccccc1 [Example 639, (8R)-8-phenyl-N-[(3S)-7,9-difluoro-2-oxo-1,3,4,5-tetrahydro-1-benzazepin-3-yl]-6,8-dihydro-5H-[1,2,4]triazolo[5,1-c][1,4]oxazine-2-carboxamide]
9.4 nM	O=C(N[C@H]1COc2cc(F)cc(F)c2NC1=O)c1nc2n(n1)CCO[C@H]2c1ccccc1 [Example 640, (8S)-8-phenyl-N-[(3S)-6,8-difluoro-4-oxo-3,5-dihydro-2H-1,5-benzoxazepin-3-yl]-6,8-dihydro-5H-[1,2,4]triazolo[5,1-c][1,4]oxazine-2-carboxamide]
470 nM	O=C(N[C@H]1COc2cc(F)cc(F)c2NC1=O)c1nc2n(n1)CCO[C@@H]2c1ccccc1 [Example 641, (8R)-8-phenyl-N-[(3S)-6,8-difluoro-4-oxo-3,5-dihydro-2H-1,5-benzoxazepin-3-yl]-6,8-dihydro-5H-[1,2,4]triazolo[5,1-c][1,4]oxazine-2-carboxamide]
12 nM	Cc1cc(F)c2c(c1)OC[C@H](NC(=O)c1nc3n(n1)CCO[C@H]3c1ccccc1)C(=O)N2 [Example 642, (8S)-8-phenyl-N-[(3S)-6-fluoro-8-methyl-4-oxo-3,5-dihydro-2H-1,5-benzoxazepin-3-yl]-6,8-dihydro-5H-[1,2,4]triazolo[5,1-c][1,4]oxazine-2-carboxamide]
360 nM	Cc1cc(F)c2c(c1)OC[C@H](NC(=O)c1nc3n(n1)CCO[C@@H]3c1ccccc1)C(=O)N2 [Example 643, (8R)-8-phenyl-N-[(3S)-6-fluoro-8-methyl-4-oxo-3,5-dihydro-2H-1,5-benzoxazepin-3-yl]-6,8-dihydro-5H-[1,2,4]triazolo[5,1-c][1,4]oxazine-2-carboxamide]
310 nM	Cc1cc2n(n1)CC[C@H](NC(=O)c1ncn(Cc3ncccc3C)n1)C(=O)N2C [Example 644, 1-[(3-methyl-2-pyridyl)methyl]-N-(6S)-2,4-dimethyl-5-oxo-7,8-dihydro-6H-pyrazolo[1,5-a][1,3]diazepin-6-yl-1,2,4-triazole-3-carboxamide]
